Experiments:
[1] = system: polychromatic erythrocytes of F0, F1 and F2 mice; assay: Micronuclei assay in polychromatic erythrocytes of tail blood; format: in vivo, mouse
Source text: To evaluate the possibility of transgenerational transmission of DNA damage, the frequency of micronuclei is used as a sensitive indicator of the extent of propagated genomic damage (Trott, K. R., Jamali, M., Manti, L. & Teibe, A. Manifestations and mechanisms of radiation-induced genomic instability in V-79 Chinese hamster cells. Int. J. Radiat. Biol. 74, 787-791 (1998); Manti, L., Jamali, M., Prise, K. M., Michael B. D. & Trott, K. R. Genomic instability in Chinese hamster ovary cells after exposure to X rays or alpha particles of different mean energy transfer. Radiat. Res. 147, 22-28 (1997)). Tail blood samples from 16-18 month old non-irradiated, vehicle-treated and irradiated, or S1P-treated and irradiated F0 mice, 16-18 month old F1 mice, or 12-16 month old F2 mice, are smeared onto glass microscope slides coated with acridine orange (Shinko Corporation, New York, N.Y.), and coded prior to analysis. The frequency of micronuclei is then assessed in the 10^3 polychromatic erythrocytes by flourescence microscopy (Hayashi, M., Morita, T., Kodama, Y., Sofuni, T., & Ishidate, M., Jr. The micronucleus assay with mouse peripheral blood reticulocytes using acridine orange-coated slides. Mutat. Res. 245, 245-249 (1990)), after which the slides are decoded for data interpretation.

F0 oocytes = assay: DNA damage in F0 oocytes scored at diakinesis/metaphase I; format: in vivo, mouse
[2] = system: germ cells of wild-type fetal ovaries (e13.5); assay: Fetal ovary culture without hormonal support, germ cell survival; format: cell-based, mouse
Description: To determine the basis of the extensive oocyte hyperplasia in ASMase −/− neonates, fetal ovaries are harvested from wild-type and mutant mice at embryonic day 13.5 (e13.5) for in vitro culture as a model to recapitulate the events surrounding germline death that occurs as a normal component of female gametogenesis. A time-dependent activation of programmed cell death is observed in the germline of wild-type fetal ovaries cultured without hormonal support for up to 72 hours (FIG. 2A). […] These findings indicate that there exists an ovarian-intrinsic cell death defect in the ASMase-deficient mouse, and point to enhanced survival of the developing germline during oogenesis as the mechanism underlying the enlarged oocyte pool seen in mutant females at birth.
Equivalent levels of in vitro germ cell survival are obtained by either ASMase gene knockout (FIG. 2A) or by S1P treatment (FIG. 2B).

CCCCCCCCCCCCC/C=C/[C@@H](O)[C@@H](N)COP(=O)(O)O [S1P, sphingosine-1-phosphate]
frequency of micronuclei in F0 animals versus non-irradiated controls ([1]; 0.1 Gy, S1P-treated, statistically significant (P<0.01)): small increase in the frequency of micronuclei over non-irradiated controls
frequency of micronuclei, vehicle-treated versus S1P-treated irradiated mice ([1]; F0, 0.1 Gy): no significant difference in the frequency of micronuclei
Oocytes with Breaks/Crosstalk (% of total) (F0 oocytes; 0.05 Gy + S1P): 16.4%
Average Oocytes/o (mean ± SEM) (F0 oocytes; 0.05 Gy + S1P (200 μM intrabursal), 8 weeks after irradiation, n=8): 30.8 ± 3.9
Oocytes with Breaks/Crosstalk, number (F0 oocytes; 0.05 Gy + S1P, of 110 total scorable oocytes): 18
Oocytes with Breaks/Crosstalk (% of total) (F0 oocytes; 0.1 Gy + S1P): 27.6%
Oocytes with Breaks/Crosstalk, number (F0 oocytes; 0.1 Gy + S1P, of 86 total scorable oocytes): 24
percentage of oocyte population manifesting DNA damage versus vehicle-treated irradiated mice (F0 oocytes; S1P-treated irradiated females): no increase in the percentage of the oocyte population manifesting DNA damage
share of starting population of germ cells preserved ([2]; after 72 hours of hormone deprivation, versus 0 h): Over one-half of the starting population of germ cells (0 h or Time 0) is preserved
germ cell survival / germ cell apoptosis in cultured fetal ovaries ([2]; wild-type fetal ovaries, 72 hours in vitro without hormonal support, FB1 5-500 μM, S1P increasing concentrations): the reduced incidence of germ cell apoptosis conveyed by ASMase-deficiency is recapitulated

— patent publication US7850984B2, “Protection of the female reproductive system from natural and artificial insults” (The General Hospital Corporation, priority 2000, dated 2010)
